Reference: patent US20210400970A1, “COMPOSITIONS COMPRISING PYRIDINE CARBOXYLATE HERBICIDES AND MICROTUBULE ASSEMBLY INHIBITOR HERBICIDES” (priority 2018, published 2021)

What was measured:
Assay type in all cases: in vivo
Conditions in all cases: 20-22 d
[1] = system: Viola tricolor (wild pansy, VIOTR); assay: Greenhouse post-emergence herbicidal effect on wild pansy
Experimental: (§1) Seeds of the desired test plant species were planted in a 90:10% v/v (volume/volume) mixture of PRO-MIX® BX (Premier Tech Horticulture, Quakertown, Pa., USA) and PROFILE® GREENS GRADE™ (Profile Products LLC, Buffalo Grove, Ill., USA) planting mixture, which typically has a pH of 5.2 to 6.2 and an organic matter content of at least 50 percent, in plastic pots with a surface area of 103.2 square centimeters (cm^2). […] The plants were grown for 7-36 days (d) in a greenhouse with an approximate 14-hour (h) photoperiod which was maintained at about 23° C. during the day and 22° C. during the night. Nutrients and water were added on a regular basis and supplemental lighting was provided with overhead metal halide 1000-Watt lamps as necessary. The plants were employed for testing when they reached the second or third true leaf stage.
(§2) Emulsifiable concentrates of each of each pyridine carboxylate herbicide (Compound A or Compound B) were prepared at 100 grams acid equivalent per liter (g ae/L). The emulsifiable concentrates also included a safener, cloquintocet-mexyl, at 120 grams active ingredient per liter (g ai/L). An aliquot of each emulsifiable concentrate was placed in a 25 mL glass vial and diluted with an aqueous mixture of 1.25% (v/v) ACTIROB® B esterified rapeseed oil (Bayer Crop Science, Research Triangle Park, NC, USA) or MSO® Concentrate with LECI-TECH® methylated soybean oil (Loveland Products, Loveland, Colo., USA) to obtain concentrated stock solutions at the highest application rate for each herbicide, based upon a 12 milliliter (mL) application volume at a rate of 187 liters per hectare (L/ha). The concentrated stock solutions were further diluted with an aqueous mixture of 1.25% v/v ACTIROB® B or MSO® Concentrate with LECI-TECH® to obtain stock solutions at reduced application rates for each herbicide. Spray solutions of the herbicide combinations (Compound A or Compound B plus the MAI herbicide) were prepared by adding weighed amounts or aliquots of the MAI herbicide to the stock solutions of Compound A or Compound B to form 12-mL spray solutions in two-way combinations.
(§3) The spray solutions were applied to the plant material with an overhead Mandel track sprayer equipped with 8002E nozzles calibrated to deliver 187 L/ha over an application area of 0.503 square meters (m^2) at a spray height of 18 inches (43 centimeters (cm)) above the average plant canopy. Control plants were sprayed in the same manner with the solvent blank. All pyridine carboxylate herbicide (component a) application rates are given as “g ae/ha” and all MAI herbicide (component b) application rates are given as “g ai/ha.”
(§4) The treated plants and control plants were placed in a greenhouse as described above and watered by sub-irrigation to prevent wash-off of the test compounds. After 20-22 d, the condition of the test plants as compared with that of the control plants was determined visually and scored on a scale of 0 to 100 percent where 0 corresponds to no injury and 100 corresponds to complete kill.

[2] = system: Lolium multiflorum (Italian ryegrass, LOLMU); assay: Greenhouse post-emergence herbicidal effect on Italian ryegrass
Experimental: as §1, §2, §3, §4

[3] = system: Echinochloa crus-galli (barnyard grass, ECHCG); assay: Greenhouse post-emergence herbicidal effect on barnyard grass
Experimental: as §1, §2, §3, §4

[4] = system: Digitaria sanguinalis (large crabgrass, DIGSA); assay: Greenhouse post-emergence herbicidal effect on large crabgrass
Experimental: as §1, §2, §3, §4

[5] = system: Polygonum convolvulus (wild buckwheat, POLCO); assay: Greenhouse post-emergence herbicidal effect on wild buckwheat
Experimental: as §1, §2
(§5) The spray solutions were applied to the plant material with an overhead Mandel track sprayer equipped with 8002E nozzles calibrated to deliver 187 L/ha over an application area of 0.503 square meters (m^2) at a spray height of 18 inches (43 centimeters (cm)) above the average plant canopy. […]
as §4

[6] = system: Cirsium arvense (Canada thistle, CIRAR); assay: Greenhouse post-emergence herbicidal effect on Canada thistle
Experimental: as §1, §2, §3, §4

[7] = system: Brassica napus (spring rape, BRSNN); assay: Greenhouse post-emergence herbicidal effect on spring rape
Experimental: as §1, §2, §3, §4

[8] = system: Setaria faberi (giant foxtail, SETFA); assay: Greenhouse post-emergence herbicidal effect on giant foxtail
Experimental: as §1, §2, §3, §4

[9] = system: Rumex obtusifolius (broad-leaf dock, RUMOB); assay: Greenhouse post-emergence herbicidal effect on broad-leaf dock
Experimental: as §1, §2, §3, §4

[10] = system: Glycine max (soybean, GLXMA); assay: Greenhouse post-emergence herbicidal effect on volunteer soybean
Experimental: as §1, §2, §3, §4

[11] = system: Ipomoea hederacea (ivyleaf morningglory, IPOHE); assay: Greenhouse post-emergence herbicidal effect on ivyleaf morningglory
Experimental: as §1, §2, §3, §4

[12] = system: Kochia scoparia (kochia, KCHSC); assay: Greenhouse post-emergence herbicidal effect on kochia
Experimental: as §1, §2, §3, §4

[13] = system: Chenopodium album L. (common lambsquarters, CHEAL); assay: Greenhouse post-emergence herbicidal effect on common lambsquarters
Experimental: as §1, §2, §5, §4

[14] = system: Abutilon theophrasti (velvetleaf, ABUTH); assay: Greenhouse post-emergence herbicidal effect on velvetleaf
Experimental: as §1, §2, §5, §4

[15] = MAI herbicide alone, 560 g ai/ha
[16] = MAI herbicide alone, 280 g ai/ha

CCC(CC)Nc1c([N+](=O)[O-])cc(C)c(C)c1[N+](=O)[O-] [Pendimethalin]
Obs (% visual injury) [1, 15]: 0% | Obs (% visual injury) [2, 15]: 0% | Obs (% visual injury) [3, 15]: 0% | Obs (% visual injury) [4, 15]: 15% | Obs (% visual injury) [5, 15]: 0% | Obs (% visual injury) [6, 15]: 5% | Obs (% visual injury) [7, 15]: 15% | Obs (% visual injury) [8, 15]: 0% | Obs (% visual injury) [9, 15]: 0% | Obs (% visual injury) [10, 15]: 23% | Obs (% visual injury) [11, 15]: 3% | Obs (% visual injury) [12, 15]: 18%

N#CCOC(=O)c1nc(-c2ccc3cc[nH]c3c2F)c(F)c(N)c1Cl [Compound A, cyanomethyl 4-amino-3-chloro-5-fluoro-6-(7-fluoro-1H-indol-6-yl)pyridine-2-carboxylate]
Obs (% visual injury) ([1]; Compound A alone, 7.5 g ae/ha): 10% | Obs (% visual injury) ([1]; Compound A alone, 10 g ae/ha): 18% | Obs (% visual injury) ([13]; Compound A alone, 7.5 g ae/ha): 97% | Obs (% visual injury) ([13]; Compound A alone, 10 g ae/ha): 93% | Obs (% visual injury) ([2]; Compound A alone, 7.5 g ae/ha): 0% | Obs (% visual injury) ([2]; Compound A alone, 10 g ae/ha): 0% | Obs (% visual injury) ([3]; Compound A alone, 7.5 g ae/ha): 73% | Obs (% visual injury) ([3]; Compound A alone, 10 g ae/ha): 78% | Obs (% visual injury) ([4]; Compound A alone, 7.5 g ae/ha): 45% | Obs (% visual injury) ([4]; Compound A alone, 10 g ae/ha): 25% | Obs (% visual injury) ([14]; Compound A alone, 7.5 g ae/ha): 68% | Obs (% visual injury) ([14]; Compound A alone, 10 g ae/ha): 78% | Obs (% visual injury) ([5]; Compound A alone, 7.5 g ae/ha): 75% | Obs (% visual injury) ([5]; Compound A alone, 10 g ae/ha): 70% | Obs (% visual injury) ([6]; Compound A alone, 7.5 g ae/ha): 23% | Obs (% visual injury) ([6]; Compound A alone, 10 g ae/ha): 20% | Obs (% visual injury) ([7]; Compound A alone, 7.5 g ae/ha): 73% | Obs (% visual injury) ([7]; Compound A alone, 10 g ae/ha): 83% | Obs (% visual injury) ([8]; Compound A alone, 7.5 g ae/ha): 70% | Obs (% visual injury) ([8]; Compound A alone, 10 g ae/ha): 70% | Obs (% visual injury) ([9]; Compound A alone, 7.5 g ae/ha): 8% | Obs (% visual injury) ([9]; Compound A alone, 10 g ae/ha): 10% | Obs (% visual injury) ([10]; Compound A alone, 7.5 g ae/ha): 93% | Obs (% visual injury) ([10]; Compound A alone, 10 g ae/ha): 95% | Obs (% visual injury) ([11]; Compound A alone, 7.5 g ae/ha): 3% | Obs (% visual injury) ([11]; Compound A alone, 10 g ae/ha): 8% | Obs (% visual injury) ([12]; Compound A alone, 7.5 g ae/ha): 60% | Obs (% visual injury) ([12]; Compound A alone, 10 g ae/ha): 65%

CSC(=O)c1c(C(F)F)nc(C(F)(F)F)c(C(=O)SC)c1CC(C)C [Dithiopyr]
Obs (% visual injury) [1, 16]: 0% | Obs (% visual injury) [13, 16]: 10% | Obs (% visual injury) [2, 16]: 0% | Obs (% visual injury) [3, 16]: 0% | Obs (% visual injury) [4, 16]: 33% | Obs (% visual injury) [14, 16]: 40% | Obs (% visual injury) [5, 16]: 0% | Obs (% visual injury) [6, 16]: 0% | Obs (% visual injury) [7, 16]: 58% | Obs (% visual injury) [8, 16]: 0% | Obs (% visual injury) [9, 16]: 5% | Obs (% visual injury) [10, 16]: 13% | Obs (% visual injury) [11, 16]: 30% | Obs (% visual injury) [12, 16]: 15%

C#CC(C)(C)NC(=O)c1cc(Cl)cc(Cl)c1 [Propyzamide]
Obs (% visual injury) [1, 16]: 0% | Obs (% visual injury) [13, 16]: 0% | Obs (% visual injury) [2, 16]: 0% | Obs (% visual injury) [3, 16]: 0% | Obs (% visual injury) [4, 16]: 0% | Obs (% visual injury) [14, 16]: 5% | Obs (% visual injury) [6, 16]: 0% | Obs (% visual injury) [7, 16]: 0% | Obs (% visual injury) [8, 16]: 0% | Obs (% visual injury) [9, 16]: 0% | Obs (% visual injury) [10, 16]: 23% | Obs (% visual injury) [11, 16]: 3% | Obs (% visual injury) [12, 16]: 18%
